Laboratory results reported in patent US5204329A, “Treatment of organ transplantation rejection” (Du Pont Merck Pharmaceutical Company, priority 1990, dated 1993).
Where “and” joins values, the source holds several entries; their conditions need not be identical. Equal entries are not always repeated.

Tests used:
[1] = test system: contact sensitivity response to 2,4-dinitrofluorobenzene (DNFB); assay: Contact Sensitivity Response to DNFB in Mice (ear swelling); assay type: in vivo, Balb/c female mice
Method: Balb/c female mice ([…].20 g, Charles River) were sensitized on the shaved abdomen with 25 μl of 0.5% 2,4-dinitrofluorobenzene (DNFB, Eastman Kodak Co.) in a vehicle of 4:1 acetone:olive oil on days 0 and 1. Mice were ear challenged with 20 μl of 0.2% DNFB in a vehicle of 4:1 acetone:olive oil on day 5. An identical segment of the ear was measured immediately before challenge and 24 hours later with an engineer's micrometer. Ear swelling was expressed as the difference in ear thickness before and after challenge in units of 10^-4 inches±SEM. Percent suppression was calculated as: [formula] […] Control animals received only vehicle (0.25% Methocel®). Negative controls were not sensitized on days 0 and 1 but were ear challenged on day 5. Ten mice were used per group.
Contact sensitivity to DNFB is a form of delayed-type hypersensitivity which has been extensively studied to gain an understanding of the regulation of immunologic processes (Claman et. al. (1980), Immunological Rev. 50:105-132). This reaction is mediated by T lymphocytes that become sensitized to antigen by proliferating and developing into mature effector cells (Claman et. al. (1980), Immunological Rev. 105-132). This cell-mediated immune response (T-cell mediated immunity) is central to many disease states such as organ transplantation rejection and graft versus host disease (Benacerraf and Unanue (1979), Textbook of Immunology, Williams & Wilkins Co.,; Eisen (1980), Immunology, An Introduction to Molecular and Cellular Principles of the Immune Responses, Harper & Row, Inc.; Loveland and McKenzie (1982), Inflammation, Basic Principles and Clinical Correlates, Raven Press). […]

[2] = known immunosuppressive agents; listed as AZA; cited from earlier work
[3] = test system: dihydroorotate dehydrogenase; settings: consequent inhibition of pyrimidine nucleotide biosynthesis; Chen et al. (1986); cited from earlier work
[4] = Table 1, 0.4 mg/kg oral, days 0-6
[5] = Table 1, 2.0 mg/kg oral, days 0-6
[6] = Table 1, 10.0 mg/kg oral, days 0-6
[7] = Table 1, 20.0 mg/kg oral, days 0-6
[8] = Table 4, dosing only day 0 and 1, 20.0 mg/kg

Cn1cnc([N+](=O)[O-])c1Sc1ncnc2nc[nH]c12 [Azathioprine, reference compound]
Azathioprine ED50 ([1]; Table 3, Ex. 28 at 0 mg/kg): 38.0 mg/kg | Azathioprine ED50 ([1]; Table 3, with Ex. 28 at 0.1 mg/kg): 42.0 mg/kg | Azathioprine ED50 ([1]; Table 3, with Ex. 28 at 0.3 mg/kg): 43.0 mg/kg | Azathioprine ED50 ([1]; Table 3, with Ex. 28 at 1.0 mg/kg): 7.5 mg/kg | Azathioprine ED50 ([1]; Table 3, with Ex. 28 at 3.0 mg/kg): < 6.3 mg/kg | Azathioprine ED50 ([1]; Table 3, with Ex. 28 at 10.0 mg/kg): < 6.3 mg/kg | % Suppression of Ear Swelling ([1]; agent alone, 6.3 mg/kg, days 0-6): 2.5 ± 4.2% | % Suppression of Ear Swelling ([1]; agent alone, 12.5 mg/kg, days 0-6): 15.9 ± 3.3% | % Suppression of Ear Swelling ([1]; agent alone, 12.5 mg/kg, days 0-6, listed as azathioprine): 15.9% | % Suppression of Ear Swelling ([1]; agent alone, 25.0 mg/kg, days 0-6): 29.7 ± 4.1% | % Suppression of Ear Swelling ([1]; agent alone, 50.0 mg/kg, days 0-6): 72.1 ± 3.1% | % Suppression of Ear Swelling ([1]; agent alone, 100.0 mg/kg, days 0-6): 97.7 ± 1.6% | clinically observed toxicities / side effects [2]: nephrotoxicity and hepatoxicity

Cc1c(-c2ccc(-c3ccccc3F)cc2)nc2ccc(F)cc2c1C(=O)O [Example 28, 2-(2'-fluoro-1,1'-biphenyl-4-yl)-6-fluoro-3-methyl-4-quinoline carboxylic acid]
unique mechanism of action: inhibition of dihydroorotate dehydrogenase [3]: inhibition of dihydroorotate dehydrogenase | ED50 ([1]; Mus musculus, Table 1, agent alone, oral, days 0-6): 0.95 mg/kg | % Suppression [1, 4]: 30.20% | Ear Swelling (units ± SEM), increase in ear thickness from day 5 to day 6 [1, 4]: 51.95 ± 2.33 10^-4 inches | % Suppression [1, 5]: 66.10% | Ear Swelling (units ± SEM), increase in ear thickness from day 5 to day 6 [1, 5]: 25.61 ± 3.39 10^-4 inches | % Suppression [1, 6]: 92.28% | Ear Swelling (units ± SEM), increase in ear thickness from day 5 to day 6 [1, 6]: 6.40 ± 1.09 10^-4 inches | % Suppression [1, 7]: 94.53% | Ear Swelling (units ± SEM), increase in ear thickness from day 5 to day 6 [1, 7]: 4.75 ± 1.20 10^-4 inches | Ex. 28 ED50 ([1]; Table 2, with cyclosporin A 6.3 mg/kg): 1.0 mg/kg | Ex. 28 ED50 ([1]; Table 2, with cyclosporin A 12.5 mg/kg): 0.8 mg/kg | Ex. 28 ED50 ([1]; Table 2, with cyclosporin A 25.0 mg/kg): 0.7 mg/kg | Ex. 28 ED50 ([1]; Table 2, with cyclosporin A 30.0 mg/kg): 0.4 mg/kg | Ex. 28 ED50 ([1]; Table 2, with cyclosporin A 50.0 mg/kg): 0.4 mg/kg | Ex. 28 ED50 ([1]; Table 2, with cyclosporin A 70.0 mg/kg): < 0.3 mg/kg | Ex. 28 ED50 ([1]; Table 3, with azathioprine 6.3 mg/kg): 1.3 mg/kg | Ex. 28 ED50 ([1]; Table 3, with azathioprine 12.5 mg/kg): 0.8 mg/kg | Ex. 28 ED50 ([1]; Table 3, with azathioprine 25.0 mg/kg): 0.7 mg/kg | Ex. 28 ED50 ([1]; Table 3, with azathioprine 50.0 mg/kg): < 0.1 mg/kg | Ex. 28 ED50 ([1]; Table 3, with azathioprine 100.0 mg/kg): < 0.1 mg/kg | % Suppression [1, 8]: 14.4% | ΔEar Swelling [1, 8]: 59.6 ± 2.5 | Ex. 28 ED50 ([1]; Tables 2 and 3, cyclosporin A / azathioprine at 0 mg/kg): 1.4 mg/kg | % Suppression of Ear Swelling ([1]; agent alone, 0.1 mg/kg, days 0-6, listed as Ex. 28, 0.1 mg/kg): 6.5 ± 2.9% and 6.5 ± 2.8% | % Suppression of Ear Swelling ([1]; agent alone, 0.3 mg/kg, days 0-6): 7.3 ± 2.4% | % Suppression of Ear Swelling ([1]; agent alone, 1.0 mg/kg, days 0-6): 31.4% | % Suppression of Ear Swelling ([1]; agent alone, 1.0 mg/kg, days 0-6, listed as Ex. 28, 1 mg/kg): 31.4 ± 3.3% | % Suppression of Ear Swelling ([1]; agent alone, 3.0 mg/kg, days 0-6): 91.9 ± 2.3% | % Suppression of Ear Swelling ([1]; agent alone, 10.0 mg/kg, days 0-6): 93.9 ± 2.4%
